In this assay the target is T1, full length human recombinant glucocorticoid receptor (Homo sapiens, UniProt P04150).
T1 construct: It contains some partially purified full length human recombinant glucocorticoid receptor; purchased Panvera/Invitrogen PV4302
T1 sequence (P04150 1-777): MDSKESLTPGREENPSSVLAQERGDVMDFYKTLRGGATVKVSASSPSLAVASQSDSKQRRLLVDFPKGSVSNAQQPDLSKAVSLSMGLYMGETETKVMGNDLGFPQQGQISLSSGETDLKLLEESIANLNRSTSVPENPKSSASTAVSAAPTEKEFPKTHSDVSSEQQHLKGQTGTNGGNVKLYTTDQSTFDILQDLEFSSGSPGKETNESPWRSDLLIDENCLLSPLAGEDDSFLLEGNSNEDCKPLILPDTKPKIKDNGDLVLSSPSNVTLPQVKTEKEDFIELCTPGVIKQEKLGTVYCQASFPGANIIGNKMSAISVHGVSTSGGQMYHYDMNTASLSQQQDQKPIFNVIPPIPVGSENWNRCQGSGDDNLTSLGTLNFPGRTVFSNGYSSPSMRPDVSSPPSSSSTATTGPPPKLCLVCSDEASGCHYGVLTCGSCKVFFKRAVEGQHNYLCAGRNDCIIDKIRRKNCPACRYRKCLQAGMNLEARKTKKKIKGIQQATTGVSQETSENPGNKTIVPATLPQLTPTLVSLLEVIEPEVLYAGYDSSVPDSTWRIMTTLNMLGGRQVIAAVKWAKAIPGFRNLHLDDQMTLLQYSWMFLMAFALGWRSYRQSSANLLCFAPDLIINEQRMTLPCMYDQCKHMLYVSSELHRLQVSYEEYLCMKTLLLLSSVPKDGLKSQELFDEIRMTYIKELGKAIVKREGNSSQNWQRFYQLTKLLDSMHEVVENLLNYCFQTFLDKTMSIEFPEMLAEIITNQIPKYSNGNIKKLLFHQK
Kind of assay: Glucocorticoid Receptor Binding Assay (Glucocorticoid Receptor Competitor Assay far red kit, fluorescence polarization). The conditions noted are these: competition with fluorescent GR ligand Fluormone GS Far Red, 3 hours at 22° C., pH 7.4; Ki calculated from IC50 by Cheng-Prusoff. The method in brief: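 Compounds in serial dilution (from intermediate 4.2% DMSO stock) displace Fluormone GS Far Red from full-length human recombinant GR with stabilizing peptide, pH 7.4, incubated 3 hours at 22° C dark. Polarized fluorescence (610–660 nm) gives IC50 via sigmoidal fit, converted to Ki by Cheng-Prusoff.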

The structures appear in SMILES notation.

Turning to `C[C@H](c1ccc(Oc2ccc(C(=O)O)c(Cl)n2)cc1Cl)[C@@](O)(c1ccc2c(c1)OCC(=O)N2C)C(F)(F)F` (relative stereo) [Example 158, 2-Chloro-6-{3-chloro-4-[3,3,3-trifluoro-2-hydroxy-1-methyl-2-(4-methyl-3-oxo-3,4-dihydro-2H-benzo[1,4]oxazin-7-yl)-propyl]-phenoxy}-nicotinic acid], the inhibition constant (Ki) was 2.2 nM.

As to `CCOC(=O)C(C)(C)Oc1ccc([C@@H](C)[C@@](O)(c2ccc3c(c2)N(C)C(=O)CO3)C(F)(F)F)c(Cl)c1` (racemic) [Example 206, 2-{3-Chloro-4-[3,3,3-trifluoro-2-hydroxy-1-methyl-2-(4-methyl-3-oxo-3,4-dihydro-2H-benzo[1,4]oxazin-6-yl)-propyl]-phenoxy}-2-methyl-propionic acid ethyl ester], the inhibition constant (Ki) was 6.2 nM.

On to `C[C@H](c1ccc(-c2ccc(C(=O)O)c(F)c2)cc1Cl)[C@@](O)(c1ccc2[nH]c(=O)[nH]c2c1)C(F)(F)F` (relative stereo) [Example 114, 3′-Chloro-3-fluoro-4′-[3,3,3-trifluoro-2-hydroxy-1-methyl-2-(2-oxo-2,3-dihydro-1H-benzoimidazol-5-yl)-propyl]-biphenyl-4-carboxylic acid], for which the inhibition constant Ki is 354 nM.

As for `C[C@H](c1ccc(Oc2cccc(C(=O)O)c2)cc1Cl)[C@@](O)(c1ccc2c(c1)n(C)c(=O)n2C)C(F)(F)F` (relative stereo) [Example 99, 3-{3-Chloro-4-[2-(1,3-dimethyl-2-oxo-2,3-dihydro-1H-benzoimidazol-5-yl)-3,3,3-trifluoro-2-hydroxy-1-methyl-propyl]-phenoxy}-benzoic acid], the inhibition constant Ki is 1.2 nM.

As to `C[C@@H](c1ccc(-c2ccc(C(=O)O)cc2)cc1Cl)[C@](O)(c1ccc2c(c1)N(C)C(=O)CO2)C(F)(F)F` (stereo in doubt) [Example 22, 3′-Chloro-4′-[3,3,3-trifluoro-2-hydroxy-1-methyl-2-(4-methyl-3-oxo-3,4-dihydro-2H-benzo[1,4]oxazin-6-yl)-propyl]-biphenyl-4-carboxylic acid], the inhibition constant (Ki) is 2.9 nM.

For the compound `C[C@@H](c1ccc(Oc2ccc(C(=O)O)c(Cl)n2)cc1Cl)[C@](O)(c1ccc2c(c1)N(C)S(=O)(=O)N2C)C(F)(F)F` (relative stereo) [Example 159, 2-Chloro-6-{3-chloro-4-[2-(1,3-dimethyl-2,2-dioxo-2,3-dihydro-1H-2λ6-benzo[1,2,5]thiadiazol-5-yl)-3,3,3-trifluoro-2-hydroxy-1-methyl-propyl]-phenoxy}-nicotinic acid], the inhibition constant (Ki) is 2.1 nM.

In the case of `C[C@H](c1ccc(Oc2cc(Cl)c(C(=O)O)cn2)cc1Cl)[C@@](O)(c1ccc2c(c1)N(C)C(=O)CO2)C(F)(F)F` (stereo in doubt) [Example 211, 4-Chloro-6-{3-chloro-4-[3,3,3-trifluoro-2-hydroxy-1-methyl-2-(4-methyl-3-oxo-3,4-dihydro-2H-benzo[1,4]oxazin-6-yl)-propyl]-phenoxy}-nicotinic acid], the inhibition constant Ki was 1.2 nM.

In the case of `C[C@@H](c1ccc(-c2ccc(C(=O)O)c(Cl)c2)cc1Cl)[C@](O)(c1ccc2c(c1)N(C)C(=O)CO2)C(F)(F)F` (relative stereo) [Example 31, 3,3′-Dichloro-4′-[3,3,3-trifluoro-2-hydroxy-1-methyl-2-(4-methyl-3-oxo-3,4-dihydro-2H-benzo[1,4]oxazin-6-yl)-propyl]-biphenyl-4-carboxylic acid], the Ki was 3.1 nM.

For `C[C@H](c1ccc(Oc2ccc(C(=O)O)cn2)cc1Cl)[C@@](O)(c1ccc2c(c1)OCC(=O)N2C)C(F)(F)F` (relative stereo) [Example 169, 6-{3-Chloro-4-[3,3,3-trifluoro-2-hydroxy-1-methyl-2-(4-methyl-3-oxo-3,4-dihydro-2H-benzo[1,4]oxazin-7-yl)-propyl]-phenoxy}-nicotinic acid], the Ki was 28.2 nM.

`C[C@H](c1ccc(Oc2cc(C(F)(F)F)c(C(=O)O)cn2)cc1Cl)[C@@](O)(c1ccc2c(c1)N(C)C(=O)CO2)C(F)(F)F` [Example 62]: the Ki is 2.1 nM.

For `COC(=O)c1ccc(Oc2ccc(Cl)c([C@H](C)[C@](O)(c3ccc4c(c3)N(C)C(=O)CO4)C(F)(F)F)c2)cc1Cl` (relative stereo) [Example 9, 2-Chloro-4-{4-chloro-3-[3,3,3-trifluoro-2-hydroxy-1-methyl-2-(4-methyl-3-oxo-3,4-dihydro-2H-benzo[1,4]oxazin-6-yl)-propyl]-phenoxy}-benzoic acid methyl ester], the inhibitory constant (Ki) is 8.9 nM.

With `COc1ccc(Cl)c([C@@H](C)[C@@](O)(c2ccc3oc(=O)n(C)c3c2)C(F)(F)F)c1` (stereo in doubt) [Example 192, 5-[2-(2-Chloro-5-methoxy-phenyl)-1-hydroxy-1-trifluoromethyl-propyl]-3-methyl-3H-benzooxazol-2-one], the inhibitory constant (Ki) is 0.8 nM.

Consider `C[C@H](c1ccc(Oc2cnc(C(=O)O)cn2)cc1Cl)[C@@](O)(c1ccc2c(c1)n(C)c(=O)n2C)C(F)(F)F` (relative stereo) [Example 106, 5-{3-Chloro-4-[2-(1,3-dimethyl-2-oxo-2,3-dihydro-1H-benzoimidazol-5-yl)-3,3,3-trifluoro-2-hydroxy-1-methyl-propyl]-phenoxy}-pyrazine-2-carboxylic acid], for which the Ki was 5.2 nM.

Turning to `CCOC(=O)c1ccc(COc2ccc(Cl)c([C@H](C)[C@](O)(c3ccc4c(c3)N(C)C(=O)CO4)C(F)(F)F)c2)cc1` (stereo in doubt) [Example 1, 4-{4-Chloro-3-[3,3,3-trifluoro-2-hydroxy-1-methyl-2-(4-methyl-3-oxo-3,4-dihydro-2H-benzo[1,4]oxazin-6-yl)-propyl]-phenoxymethyl}-benzoic acid ethyl ester], the inhibition constant Ki was 9.7 nM.

As for `C[C@@H](c1cc(OCC(=O)O)ccc1Cl)[C@](O)(c1ccc2c(c1)N(C)C(=O)CO2)C(F)(F)F` (relative stereo) [Example 4, {4-Chloro-3-[3,3,3-trifluoro-2-hydroxy-1-methyl-2-(4-methyl-3-oxo-3,4-dihydro-2H-benzo[1,4]oxazin-6-yl)-propyl]-phenoxy}-acetic acid], the Ki was 426 nM.

As to `C[C@H](c1ccc(Oc2ncc(C(=O)O)cc2Cl)cc1Cl)[C@@](O)(c1ccc2c(c1)N(C)C(=O)CO2)C(F)(F)F` [Example 223, 5-Chloro-6-{3-chloro-4-[(1R,2R)-3,3,3-trifluoro-2-hydroxy-1-methyl-2-(4-methyl-3-oxo-3,4-dihydro-2H-benzo[1,4]oxazin-6-yl)-propyl]-phenoxy}-nicotinic acid], the inhibition constant (Ki) was 552 nM.

Consider `Cc1cc([C@@](O)([C@@H](C)c2ccc(Oc3ncc(C(=O)O)cc3Cl)cc2Cl)C(F)(F)F)cc(C)c1C#N` (stereo in doubt) [Example 150, 5-Chloro-6-{3-chloro-4-[2-(4-cyano-3,5-dimethyl-phenyl)-3,3,3-trifluoro-2-hydroxy-1-methyl-propyl]-phenoxy}-nicotinic acid], for which the Ki is 1.3 nM.

On to `C[C@@H](c1ccc(-c2ccc(Cl)c(C(=O)O)c2)cc1Cl)[C@](O)(c1ccc2c(c1)N(C)C(=O)CO2)C(F)(F)F` (stereo in doubt) [Example 40, 4,3′-Dichloro-4′-[3,3,3-trifluoro-2-hydroxy-1-methyl-2-(4-methyl-3-oxo-3,4-dihydro-2H-benzo[1,4]oxazin-6-yl)-propyl]-biphenyl-3-carboxylic acid], for which the Ki was 1.5 nM.

The values are drawn from patent US8450313B2, “2,3-diaryl- or heteroaryl-substituted 1,1,1-trifluoro-2-hydroxypropyl compounds” (Hoffmann-La Roche Inc., priority 2009, dated 2013).
